Test results as given in patent publication US20120316105A1, “Polymyxin Derivates Useful As Antibacterial Agents” (priority 2011, published 2012).
Like-named read-outs stand apart in the source and are kept apart here. Bridge positions count the residues as written; N and C are the ends. Square brackets hold non-standard residues; d marks the D form. Peptide text beside a SMILES is read from it. * marks the point of attachment. Isonicotinoyl(2-Ph) = O=C(c1ccnc(-c2ccccc2)c1)*; X3 = O=C(c1ccnc(-c2cccc(Cl)c2)c1)*; X1 = CC[C@H](C)CCCCC(=O)*; Dab = NCC[C@H](N)C(=O)O; Dap = NC[C@H](N)C(=O)O

Legend:
[1] = test system: PA-1646, polymyxin-resistant clinical isolate of Pseudomonas aeruginosa; type: cell-based
Summary of the method: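 Broth dilution MIC and bactericidal (MBC) testing per CLSI methods (M7-A8, M100-S20, M26-A) against polymyxin-resistant clinical P. aeruginosa isolate PA-1646. Compounds tested as trifluoroacetate salts, one as sulfate salt; values in mg/L.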

[2] = test system: AB-1649, polymyxin-resistant clinical isolate of Acinetobacter baumannii; type: cell-based
Summary of the method: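 Broth dilution MIC per CLSI against the polymyxin-resistant A. baumannii isolate, 2-fold dilutions, overnight incubation, visual read of lowest concentration inhibiting growth. Run in duplicate, lower value reported when within 2-fold; MBC per CLSI M26-A guideline.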

[3] = test system: AB-3167, clinical isolate of Acinetobacter baumannii; type: cell-based
Summary of the method: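 Broth dilution MIC per CLSI (M7-A8, M100-S20, M26-A for bactericidal), 2-fold dilution series, overnight incubation, visual read of lowest concentration inhibiting growth versus drug-free control. Duplicates run; lower value reported if within 2-fold, otherwise repeated. Compounds tested as trifluoroacetate salts; QC strains and reference compounds required in range.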

[4] = test system: PA-1646, polymyxin-resistant clinical isolate of Pseudomonas aeruginosa; type: cell-based; remark: listed apart in the source
Summary of the method: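 Broth dilution MIC per CLSI with 2-fold concentration steps, read visually after overnight incubation as lowest concentration inhibiting growth; duplicates within 2-fold, lower value reported, with QC strains and reference compounds. Compounds tested as trifluoroacetate salts, polymyxin B as sulfate.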

[5] = test system: Pseudomonas aeruginosa strain PA01; type: cell-based
Summary of the method: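 CLSI broth dilution against P. aeruginosa PA01 with two-fold concentration steps and overnight incubation; MIC is lowest concentration visibly inhibiting growth versus drug-free control, in mg/L. Compounds tested as trifluoroacetate salts, in duplicate, lower value reported if within 2-fold; control organisms and reference compounds included.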

[6] = test system: AB-1649, polymyxin-resistant clinical isolate of Acinetobacter baumannii; type: cell-based; remark: listed apart in the source
Summary of the method: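 MIC and MBC were measured by CLSI broth dilution methods (M7-A8, M100-S20, M26-A) against a polymyxin-resistant clinical isolate and reported in mg/L. Compounds were tested as trifluoroacetate salts, with one exception tested as the sulfate.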

[7] = test system: EC-1, mouse virulent strain of Escherichia coli; type: cell-based; settings: E. coli EC-1; overnight incubation, lower of duplicate values; trifluoroacetate salt (Example 1 and PMB sulfate)
Summary of the method: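 Broth dilution per CLSI with 2-fold concentration steps and overnight incubation. MIC is the lowest concentration visibly inhibiting growth versus drug-free control, run in duplicate with the lower value reported. Duplicates differing by >2-fold were repeated, and control strains and reference compounds had to fall within range.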

[8] = Cytotoxicity assay (LDH release), hRPTEC; type: cell-based, human; settings: for CC50 at 24 h: human
Summary of the method: (§1)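 hRPTEC grown 72 h in REGM, then exposed to compounds at 100, 67, 44, 30, 20 and 13 micromolar for 24 h at 37° C, 5% CO2. LDH released into supernatant measured; TC50 (micromolar) derived. Compounds tested as trifluoroacetate salts unless otherwise noted.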

[9] = test system: Human Renal Proximal Tubule Epithelial cells (hRPTEC); assay: Cytotoxicity assay (LDH release), hRPTEC; type: cell-based
Summary of the method: as §1

[10] = test system: KP-5016, ESBL+ clinical isolate of Klebsiella pneumoniae (SHV-5); assay: Minimum inhibitory concentration (MIC, CLSI), KP-5016; type: cell-based; settings: K. pneumoniae KP-5016; overnight incubation, lower of duplicate values; trifluoroacetate salt (Example 1 and PMB sulfate)
Method: (§2) Minimum bactericidal concentration (MBC, mg/L), minimum inhibitory concentration (MIC, mg/L), and human renal proximal tubule epithelial cell line cytotoxicity concentration 50% (hRPTEC, TC50, micromolar) for compounds of Formula I are listed in Table 2. The compounds of Formula I were tested as the corresponding trifluoroacetate salt except for Example 1 which was tested as the sulfate salt. For Table 2 below: PMB=polymyxin B as the sulfate salt (Bedford Laboratories, pharmaceutical grade); PMB1=polymyxin B1 as the trifluoroacetate salt; Nona=polymyxin B nonapeptide as the trifluoroacetate salt. PMB1 and Nona were prepared using the solid phase methodology described in the experimental section herein.
(§3) The in vitro antibacterial activity of compounds of Formula I was evaluated by MIC testing according to Clinical and Laboratory Standards Institute (CLSI). See: Clinical and Laboratory Standards Institute. Methods for Dilution Antimicrobial Susceptibility Tests for Bacteria that Grow Aerobically; Approved Standard-Eighth Edition. CLSI document M7-A8 [ISBN 1-56238-689-1]. Clinical and Laboratory Standards Institute, 940 West Valley Road, Suite 1400, Wayne, Pa. 19087-1898 USA, 2006; also Clinical and Laboratory Standards Institute. Performance Standards for Antimicrobial Susceptibility Testing; Twentieth Informational Supplement. CLSI document M100-S20 [ISBN 1-56238-716-2]. Clinical and Laboratory Standards Institute. Methods for Determining Bactericidal Activity of Antimicrobial Agents; Approved Guideline. CLSI document M26-A (ISBN 1-56238-384-1). CLSI, 940 West Valley Road, Suite 1400, Wayne, Pa. 19087-1898 USA, 1999.
(§4) The MIC determination is a standard laboratory method for evaluating the antibacterial activity of a compound. The MIC represents the lowest drug concentration that inhibits visible growth of bacteria following overnight incubation. […] Typically, the drug concentration range is broken down into 2-fold increments (e.g. 0.06 mg/L, 0.12 mg/L, 0.25 mg/L, 0.50 mg/L, 1.0 mg/L, etc.) and the various drug concentrations are all individually incubated overnight with approximately the same number of bacteria. The MIC is then determined by visually inspecting the drug effect at each concentration, and identifying the lowest drug concentration that has inhibited bacterial growth as compared to the drug free control. Typically, bacteria continue to grow at drug concentrations lower than the MIC and don't grow at concentrations at and above the MIC.
(§5) The MIC values described in Table 2 below were derived from assays wherein each test compound was evaluated in duplicate. In cases where the duplicate values varied by 0-2-fold, the lower of the two values was reported below. Generally speaking, if the duplicate values varied by more than 2-fold, the assay was considered non-valid and was repeated until the variation between duplicate runs was ≦2-fold. In line with the CLSI guidelines referred to above, both control organisms and reference compounds were utilized in each MIC assay to provide proper quality control. MIC values generated with these control organisms and reference compounds were required to fall within a defined range for the assay to be considered valid and be included herein. Those skilled in the art will recognize that MIC values can and do vary from experiment to experiment. Generally speaking, it should be recognized that MIC values often vary +/−2-fold from experiment to experiment. While a single MIC is reported for each compound and each microorganism, the reader should not conclude that each compound was only tested once. Several of the compounds were subjected to multiple tests. The data reported in Table 2 is reflective of the compounds relative activity and different MICs may have been generated on these occasions in line with the guidelines described above.
The following bacterial strains were used in these MIC determinations: […]

[11] = test system: KP-3700, ESBL+ clinical isolate of Klebsiella pneumoniae; assay: Minimum inhibitory concentration (MIC, CLSI), KP-3700; type: cell-based; settings: K. pneumoniae KP-3700; overnight incubation, lower of duplicate values; trifluoroacetate salt (Example 1 and PMB sulfate)
Method: as §2, §3, §4, §5
The following bacterial strains were used in these MIC determinations:
KP-3700 is an ESBL+clinical isolate of Klebsiella pneumoniae obtained in 2006; and […]

[12] = PA-1646, polymyxin-resistant clinical isolate of
[13] = AB-1649, polymyxin-resistant clinical isolate of
[14] = A. baumannii AB-3167, overnight incubation, lower of duplicate values, trifluoroacetate salt (Example 1 and PMB sulfate)

Row | Compound | PA-1646 MBC [1, 12] [µg/mL] | AB-1649 MIC [2, 13] [µg/mL] | AB-3167 MIC [3, 14] [µg/mL] | PA-1646 MIC [4, 12] [µg/mL] | PA01 MIC ([5]; strain) [µg/mL] | AB-1649 MBC [6, 13] [µg/mL] | EC-1 MIC [7] [µg/mL] | CC50 at 24 h [8] [µM] | reduced human renal cytotoxicity compared with PMB [9] | AB-3167 MIC ([3]; AB-3167, clinical isolate of) [µg/mL] | PA-1646 MBC ([1]; P. aeruginosa PA-1646, tested as trifluoroacetate salt (Example 1 and PMB as sulfate salt)) [µg/mL] | AB-1649 MIC ([2]; A. baumannii AB-1649, overnight incubation, lower of duplicate values, trifluoroacetate salt (Example 1 and PMB sulfate)) [µg/mL] | PA-1646 MIC ([4]; P. aeruginosa PA-1646, overnight incubation, lower of duplicate values, trifluoroacetate salt (Example 1 and PMB sulfate)) [µg/mL] | PA01 MIC ([5]; P. aeruginosa PA01, overnight incubation, lower of duplicate values, trifluoroacetate salt (Example 1 and PMB sulfate)) [µg/mL] | AB-1649 MBC ([6]; A. baumannii AB-1649, tested as trifluoroacetate salt (Example 1 and PMB as sulfate salt)) [µg/mL] | KP-5016 MIC [10] [µg/mL] | KP-3700 MIC [11] [µg/mL] | CC50 at 24 h ([8]; hRPTEC, 24 hours treatment, LDH release, Toxic Concentration 50%, read-out: hRPTEC TC50) [µM] | CC50 [8] [µM]
1 | CC[C@H](C)CCCCC(=O)N[C@@H](CCN)C(=O)N[C@H](C(=O)N[C@@H](CN)C(=O)N[C@H]1CCNC(=O)[C@H]([C@@H](C)O)NC(=O)[C@H](CCN)NC(=O)[C@H](CCN)NC(=O)[C@H](CC(C)C)NC(=O)[C@@H](Cc2ccccc2)NC(=O)[C@H](CCN)NC1=O)[C@@H](C)O [Example 43] (X1-[Dab]T[Dap][Dab][Dab][dF]L[Dab][Dab]T; lactam 4-C) | 2 | 4 | 0.125 | 1 | 0.5 | 4 | 0.125 | 72 | 3-4 fold |  |  |  |  |  |  |  |  |  | 
2 | CC(C)C[C@@H]1NC(=O)[C@@H](Cc2ccccc2)NC(=O)[C@H](CCN)NC(=O)[C@@H](NC(=O)[C@H](CN)NC(=O)[C@@H](NC(=O)[C@H](CCN)NC(=O)c2ccnc(-c3ccccc3)c2)[C@@H](C)O)CCNC(=O)[C@H]([C@@H](C)O)NC(=O)[C@H](CCN)NC(=O)[C@H](CCN)NC1=O [Example 1] ({Isonicotinoyl(2-Ph)}-[Dab]T[Dap][Dab][Dab][dF]L[Dab][Dab]T; lactam 4-C) | 4 | 1 |  | 2 | 0.25 | 1 | 0.125 | 95 | 4-5 fold | 0.25 |  |  |  |  |  |  |  |  | 
3 | CC[C@H](C)CCCCC(=O)N[C@@H](CCN)C(=O)N[C@H](C(=O)N[C@@H](CCN)C(=O)N[C@H]1CCNC(=O)[C@H]([C@@H](C)O)NC(=O)[C@H](CCN)NC(=O)[C@H](CCN)NC(=O)[C@H](CC(C)C)NC(=O)[C@@H](Cc2ccccc2)NC(=O)[C@H](CCN)NC1=O)[C@@H](C)O [PMB1, polymyxin B1, reference compound] (X1-[Dab]T[Dab][Dab][Dab][dF]L[Dab][Dab]T; lactam 4-C) |  |  | 0.25 |  |  |  | 0.125 |  |  |  | 16 | 4 | 4 | 0.5 | 4 | 16 | 0.5 | 28 | 
4 | CC(C)C[C@@H]1NC(=O)[C@@H](Cc2ccccc2)NC(=O)[C@H](CCN)NC(=O)[C@@H](NC(=O)[C@H](CCN)NC(=O)[C@@H](N)[C@@H](C)O)CCNC(=O)[C@H]([C@@H](C)O)NC(=O)[C@H](CCN)NC(=O)[C@H](CCN)NC1=O [Nona, polymyxin B nonapeptide, reference compound] (H-T[Dab][Dab][Dab][dF]L[Dab][Dab]T; lactam 3-C (inferred)) | >64 | >64 |  | >64 | >64 | >64 | >64 |  |  | >64 |  |  |  |  |  | >64 | >64 |  | > 100
5 | CC[C@H](C)[C@@H]1NC(=O)[C@@H](Cc2ccccc2)NC(=O)[C@H](CCN)NC(=O)[C@@H](NC(=O)[C@H](CN)NC(=O)[C@@H](NC(=O)[C@H](CCN)NC(=O)c2ccnc(-c3cccc(Cl)c3)c2)[C@@H](C)O)CCNC(=O)[C@H]([C@@H](C)O)NC(=O)[C@H](CCN)NC(=O)[C@H](CCN)NC1=O [Example 48] (X3-[Dab]T[Dap][Dab][Dab][dF]I[Dab][Dab]T; lactam 4-C) | 2 | 0.5 |  | 1 | 0.5 | 0.5 | 0.25 | 33 |  | 0.25 |  |  |  |  |  | 32 | 0.25 |  | 
6 | CC[C@H](C)[C@@H]1NC(=O)[C@@H](Cc2ccccc2)NC(=O)[C@H](CCN)NC(=O)[C@@H](NC(=O)[C@H](CN)NC(=O)[C@@H](NC(=O)[C@H](CCN)NC(=O)c2ccnc(-c3ccccc3)c2)[C@@H](C)O)CCNC(=O)[C@H]([C@@H](C)O)NC(=O)[C@H](CCN)NC(=O)[C@H](CCN)NC1=O [Example 49] ({Isonicotinoyl(2-Ph)}-[Dab]T[Dap][Dab][Dab][dF]I[Dab][Dab]T; lactam 4-C) | 8 | 0.25 | 0.125 | 4 | 0.5 | 0.25 | 0.125 | > 100 |  |  |  |  |  |  |  | 16 | 0.25 |  | 
